In PMC6325563 (eNeuro, 2019):

Tests used:
Experiment in all cases: two-electrode voltage clamp, Xenopus oocytes
Format in all cases: cell-based
[1] = biological target: T1, (α4)3(β2)2 nAChR (low sensitivity) (Rattus norvegicus, UniProt P09483+P12390)
T1 construct: gene Chrna4; subunits in pGEMhe, mRNA alpha4:beta2 10:1 injected in Xenopus laevis oocytes; pentamer
Text: (§1) two-electrode voltage clamp, Xenopus oocytes on (α4)3(β2)2 nAChR (low sensitivity)

[2] = biological target: T2, (α4)2(β2)3 nAChR (high sensitivity) (Rattus norvegicus, UniProt P09483+P12390)
T2 construct: gene Chrna4; subunits in pGEMhe, mRNA alpha4:beta2 1:10 injected in Xenopus laevis oocytes; pentamer
Text: (§2) two-electrode voltage clamp, Xenopus oocytes on (α4)2(β2)3 nAChR (high sensitivity)

[3] = biological target: T3, (α4)3(β2)2 nAChR (low sensitivity) (Rattus norvegicus, UniProt P09483+P12390, P09483:S286L); details: read-out: IC50 (μM (-)-menthol) ± SEM
T3 construct: gene Chrna4; subunits in pGEMhe, mRNA alpha4:beta2 10:1 injected in Xenopus laevis oocytes; pentamer
Text: as §1

[4] = biological target: T4, (α4)3(β2)2 nAChR (low sensitivity) (Rattus norvegicus, UniProt P09483+P12390, P09483:L285I); details: read-out: IC50 (μM (-)-menthol) ± SEM
T4 construct: gene Chrna4; subunits in pGEMhe, mRNA alpha4:beta2 10:1 injected in Xenopus laevis oocytes; pentamer
Text: as §1

[5] = biological target: T5, (α4)3(β2)2 nAChR (low sensitivity) (Rattus norvegicus, UniProt P09483+P12390, P09483:L285M); details: read-out: IC50 (μM (-)-menthol) ± SEM
T5 construct: gene Chrna4; subunits in pGEMhe, mRNA alpha4:beta2 10:1 injected in Xenopus laevis oocytes; pentamer
Text: as §1

[6] = biological target: T6, (α4)2(β2)3 nAChR (high sensitivity) (Rattus norvegicus, UniProt P09483+P12390, P09483:L285S); details: read-out: IC50 (μM (-)-menthol) ± SEM
T6 construct: gene Chrna4; subunits in pGEMhe, mRNA alpha4:beta2 1:10 injected in Xenopus laevis oocytes; pentamer
Text: as §2

[7] = biological target: T7, (α4)2(β2)3 nAChR (high sensitivity) (Rattus norvegicus, UniProt P09483+P12390, P09483:L285Q); details: read-out: IC50 (μM (-)-menthol) ± SEM
T7 construct: gene Chrna4; subunits in pGEMhe, mRNA alpha4:beta2 1:10 injected in Xenopus laevis oocytes; pentamer
Text: as §2

[8] = biological target: T8, (α4)2(β2)3 nAChR (high sensitivity) (Rattus norvegicus, UniProt P09483+P12390, P09483:L285W); details: read-out: IC50 (μM (-)-menthol) ± SEM
T8 construct: gene Chrna4; subunits in pGEMhe, mRNA alpha4:beta2 1:10 injected in Xenopus laevis oocytes; pentamer
Text: as §2

[9] = biological target: T9, (α4)2(β2)3 nAChR (high sensitivity) (Rattus norvegicus, UniProt P09483+P12390, P09483:L285M); details: read-out: IC50 (μM (-)-menthol) ± SEM
T9 construct: gene Chrna4; subunits in pGEMhe, mRNA alpha4:beta2 1:10 injected in Xenopus laevis oocytes; pentamer
Text: as §2

[10] = biological target: T10, (α4)2(β2)3 nAChR (high sensitivity) (Rattus norvegicus, UniProt P09483+P12390, P09483:L285I); details: read-out: IC50 (μM (-)-menthol) ± SEM
T10 construct: gene Chrna4; subunits in pGEMhe, mRNA alpha4:beta2 1:10 injected in Xenopus laevis oocytes; pentamer
Text: as §2

[11] = biological target: T11, (α4)2(β2)3 nAChR (high sensitivity) (Rattus norvegicus, UniProt P09483+P12390, P09483:L285F); details: read-out: IC50 (μM (-)-menthol) ± SEM
T11 construct: gene Chrna4; subunits in pGEMhe, mRNA alpha4:beta2 1:10 injected in Xenopus laevis oocytes; pentamer
Text: as §2

[12] = biological target: T12, (α4)2(β2)3 nAChR (high sensitivity) (Rattus norvegicus, UniProt P09483+P12390, P09483:L285C); details: read-out: IC50 (μM (-)-menthol) ± SEM
T12 construct: gene Chrna4; subunits in pGEMhe, mRNA alpha4:beta2 1:10 injected in Xenopus laevis oocytes; pentamer
Text: as §2

α5[wt](α4[wt]β2[wt])2 = biological target: T13, α5[wt](α4[wt]β2[wt])2 (Rattus norvegicus, UniProt P09483+P12390); details: read-out: IC50 (μM (-)-menthol) ± SEM
T13 construct: gene Chrna4; Xenopus laevis oocytes; alpha5 in the auxiliary position of alpha4beta2
Text: two-electrode voltage clamp, Xenopus oocytes on α5[wt](α4[wt]β2[wt])2

T2 sequence (P09483 31-630): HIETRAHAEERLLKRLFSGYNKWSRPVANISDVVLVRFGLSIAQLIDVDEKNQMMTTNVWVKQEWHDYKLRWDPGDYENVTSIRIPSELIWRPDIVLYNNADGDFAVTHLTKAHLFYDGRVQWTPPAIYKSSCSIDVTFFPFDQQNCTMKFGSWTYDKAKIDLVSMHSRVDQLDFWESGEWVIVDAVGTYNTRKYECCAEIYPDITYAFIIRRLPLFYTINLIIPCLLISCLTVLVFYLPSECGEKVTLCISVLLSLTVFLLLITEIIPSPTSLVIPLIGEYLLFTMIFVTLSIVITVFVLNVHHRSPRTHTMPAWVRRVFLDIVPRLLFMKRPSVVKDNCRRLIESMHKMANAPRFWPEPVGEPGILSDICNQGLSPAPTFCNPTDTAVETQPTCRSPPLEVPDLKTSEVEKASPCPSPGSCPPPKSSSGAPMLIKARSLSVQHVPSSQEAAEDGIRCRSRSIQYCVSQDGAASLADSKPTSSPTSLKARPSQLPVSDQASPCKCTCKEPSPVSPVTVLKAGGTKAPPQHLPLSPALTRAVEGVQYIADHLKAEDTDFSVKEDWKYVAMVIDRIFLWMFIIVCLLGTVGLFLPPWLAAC
T2 sequence (P12390 25-500): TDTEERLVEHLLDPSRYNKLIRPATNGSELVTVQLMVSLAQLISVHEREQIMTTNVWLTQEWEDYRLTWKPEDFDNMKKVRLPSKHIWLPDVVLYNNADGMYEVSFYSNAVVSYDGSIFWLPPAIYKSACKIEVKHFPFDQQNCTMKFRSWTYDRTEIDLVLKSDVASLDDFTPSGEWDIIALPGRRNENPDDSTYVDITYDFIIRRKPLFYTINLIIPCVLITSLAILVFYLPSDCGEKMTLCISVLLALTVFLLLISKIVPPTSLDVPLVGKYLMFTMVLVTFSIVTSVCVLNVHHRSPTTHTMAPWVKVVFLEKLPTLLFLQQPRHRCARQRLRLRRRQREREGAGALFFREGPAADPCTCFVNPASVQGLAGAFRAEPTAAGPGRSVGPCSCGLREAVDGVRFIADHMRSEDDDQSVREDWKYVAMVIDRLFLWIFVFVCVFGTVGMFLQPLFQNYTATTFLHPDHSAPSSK
T1 sequence (P09483 31-630): as the sequence (P09483 31-630) above
T1 sequence (P12390 25-500): as the sequence (P12390 25-500) above
T3 sequence (P09483 31-630 S286L): as the sequence (P09483 31-630) above, with S256L counted along it
T3 sequence (P12390 25-500): as the sequence (P12390 25-500) above
T11 sequence (P09483 31-630 L285F): as the sequence (P09483 31-630) above, with L255F counted along it
T11 sequence (P12390 25-500): as the sequence (P12390 25-500) above
T4 sequence (P09483 31-630 L285I): as the sequence (P09483 31-630) above, with L255I counted along it
T4 sequence (P12390 25-500): as the sequence (P12390 25-500) above
T10 sequence (P09483 31-630 L285I): as the sequence (P09483 31-630) above, with L255I counted along it
T10 sequence (P12390 25-500): as the sequence (P12390 25-500) above
T12 sequence (P09483 31-630 L285C): as the sequence (P09483 31-630) above, with L255C counted along it
T12 sequence (P12390 25-500): as the sequence (P12390 25-500) above
T6 sequence (P09483 31-630 L285S): as the sequence (P09483 31-630) above, with L255S counted along it
T6 sequence (P12390 25-500): as the sequence (P12390 25-500) above
T7 sequence (P09483 31-630 L285Q): as the sequence (P09483 31-630) above, with L255Q counted along it
T7 sequence (P12390 25-500): as the sequence (P12390 25-500) above
T9 sequence (P09483 31-630 L285M): as the sequence (P09483 31-630) above, with L255M counted along it
T9 sequence (P12390 25-500): as the sequence (P12390 25-500) above
T5 sequence (P09483 31-630 L285M): as the sequence (P09483 31-630) above, with L255M counted along it
T5 sequence (P12390 25-500): as the sequence (P12390 25-500) above
T13 sequence (P09483 31-630): as the sequence (P09483 31-630) above
T13 sequence (P12390 25-500): as the sequence (P12390 25-500) above
T13 sequence (P20420 28-452 partner): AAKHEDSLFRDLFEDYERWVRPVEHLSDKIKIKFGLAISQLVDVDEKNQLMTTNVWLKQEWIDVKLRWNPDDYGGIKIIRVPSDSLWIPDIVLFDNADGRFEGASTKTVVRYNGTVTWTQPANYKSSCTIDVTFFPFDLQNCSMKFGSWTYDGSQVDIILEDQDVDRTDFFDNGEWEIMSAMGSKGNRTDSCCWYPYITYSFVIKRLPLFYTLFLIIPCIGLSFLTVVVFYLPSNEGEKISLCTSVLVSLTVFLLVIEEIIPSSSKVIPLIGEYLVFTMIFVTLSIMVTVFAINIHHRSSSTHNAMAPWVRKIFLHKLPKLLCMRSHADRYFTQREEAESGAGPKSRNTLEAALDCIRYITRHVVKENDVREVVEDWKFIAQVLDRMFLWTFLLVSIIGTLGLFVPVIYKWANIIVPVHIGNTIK
T8 sequence (P09483 31-630 L285W): as the sequence (P09483 31-630) above, with L255W counted along it
T8 sequence (P12390 25-500): as the sequence (P12390 25-500) above

SMILES	IC50 [1] [µM]	IC50 [2] [µM]	IC50 [3] [µM]	IC50 [4] [µM]	IC50 [5] [µM]	IC50 [6] [µM]	IC50 [7] [µM]	IC50 [8] [µM]	IC50 [9] [µM]	IC50 [10] [µM]	IC50 [11] [µM]	IC50 [12] [µM]	IC50 (α5[wt](α4[wt]β2[wt])2) [µM]
CC(C)[C@H]1CC[C@H](C)C[C@@H]1O [(+)-menthol]	45.5 ± 2.03	48.3 ± 1.67	–	–	–	–	–	–	–	–	–	–	–
CC(C)[C@@H]1CC[C@@H](C)C[C@H]1O [(−)-menthol]	33.1 ± 1.83	44.9 ± 1.62	29.4 ± 4.32	127 ± 29.1	39.2 ± 7.98	514 ± 361	165 ± 28.1	28.8 ± 3.26	26.6 ± 1.9	97.3 ± 38.5	211 ± 75.6	306 ± 173	51 ± 9.06
